Test results published in US10556914B2, “Substituted isoxazolopyridazinones and isothiazolopyridazinones and methods of use” (AbbVie Inc., priority 2015, dated 2020).

Each molecule was assayed against GABA-B receptor (Rattus norvegicus (Rat), UniProt O88871+Q9Z0U4) (assay: [35S]GTPgS Binding Assay (rat brain cortex membranes, native receptor)). Details: rat cortical membranes; in the presence of 1 μM GABA (EC25); basal binding 0%, maximal binding (1 mM GABA) 100%.
Type: biochemical
Method: Preparation of Rat Brain Membranes for Native Receptor Assays
Membranes from rat brain cortex were prepared as described in detail by Olpe et al. and stored at concentrations of 1.66 mg/mL protein at −80° C. until required. (Olpe, H.-R, et al. Eur J Pharmacol 1990; 187: 27-38).
[^35S]GTPgS Binding Assay
The samples were incubated at room temperature for 60 minutes on a shaker. The incubation was stopped by rapid vacuum filtration over glass-fiber filter plates (UniFilter-96 well, GF/B membrane plates, PerkinElmer) using a 96-well plate harvester (TOMTEK© Harvester). The UniFilter plate was washed five times with ice-cold wash buffer (50 mM Tris-HCl buffer, pH 7.7, 10 mM MgCl2, and 100 mM NaCl. After filtration the plate was dried for 90 minutes at 55° C. The plates were closed on the bottom with black sealing membranes, and liquid scintillation cocktail (35 μL, Betaplate Scint, PerkinElmer) was added to each well. After sealing the top of the plate, an additional incubation step of 90 minutes at room temperature followed before measuring the plate. The amount of membrane-bound [^35S]GTPgS was measured using a 96-well plate reader (Microbeta®, PerkinElmer). Nonspecific binding was measured in the presence of unlabeled 10 μM of GTPgS (Millipore) and without GABA. Basal binding was measured in the absence of 1 μM GABA, and maximal binding was measured in the presence of GABA using 1 mM GABA concentrations.
Data analysis. The concentration-response curves of compounds of the present disclosure in the presence of EC25 of GABA-B receptor agonist were generated using the GraphPad Prism® program (GraphPad Software, San Diego, Calif.). Data was normalized using basal binding as 0% and maximal binding as 100%. The curves were fitted by nonlinear regression allowing determination of EC50 values from sigmoidal dose-response curves. Each curve was performed using triplicate sample per date point and 10 concentrations.

GABA-B receptor, sequence (Q9Z0U4 17-960): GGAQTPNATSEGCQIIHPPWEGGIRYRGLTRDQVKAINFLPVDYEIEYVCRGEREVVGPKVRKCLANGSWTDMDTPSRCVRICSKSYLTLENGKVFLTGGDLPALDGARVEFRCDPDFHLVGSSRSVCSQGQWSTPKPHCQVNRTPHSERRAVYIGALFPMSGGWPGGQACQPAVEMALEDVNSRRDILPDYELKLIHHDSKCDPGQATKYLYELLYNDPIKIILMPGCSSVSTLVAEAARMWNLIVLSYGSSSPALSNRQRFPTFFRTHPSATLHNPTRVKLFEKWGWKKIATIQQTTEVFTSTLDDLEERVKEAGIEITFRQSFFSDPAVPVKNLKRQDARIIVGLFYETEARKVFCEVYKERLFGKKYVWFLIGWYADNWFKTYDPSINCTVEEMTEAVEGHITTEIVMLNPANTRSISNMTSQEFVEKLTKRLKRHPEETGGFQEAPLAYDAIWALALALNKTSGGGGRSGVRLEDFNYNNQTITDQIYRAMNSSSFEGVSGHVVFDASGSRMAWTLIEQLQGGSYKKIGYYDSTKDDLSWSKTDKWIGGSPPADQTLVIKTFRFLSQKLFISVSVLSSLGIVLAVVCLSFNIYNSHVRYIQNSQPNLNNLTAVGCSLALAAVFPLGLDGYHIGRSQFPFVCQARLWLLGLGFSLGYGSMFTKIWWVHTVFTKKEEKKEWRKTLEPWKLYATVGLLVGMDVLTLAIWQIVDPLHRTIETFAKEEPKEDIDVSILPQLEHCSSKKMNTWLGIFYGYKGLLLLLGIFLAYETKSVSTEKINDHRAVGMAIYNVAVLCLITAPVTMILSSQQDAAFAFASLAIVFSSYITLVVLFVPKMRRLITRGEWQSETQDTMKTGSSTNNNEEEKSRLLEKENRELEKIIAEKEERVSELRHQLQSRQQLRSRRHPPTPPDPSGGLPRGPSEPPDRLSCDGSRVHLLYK
GABA-B receptor, sequence (O88871 41-940): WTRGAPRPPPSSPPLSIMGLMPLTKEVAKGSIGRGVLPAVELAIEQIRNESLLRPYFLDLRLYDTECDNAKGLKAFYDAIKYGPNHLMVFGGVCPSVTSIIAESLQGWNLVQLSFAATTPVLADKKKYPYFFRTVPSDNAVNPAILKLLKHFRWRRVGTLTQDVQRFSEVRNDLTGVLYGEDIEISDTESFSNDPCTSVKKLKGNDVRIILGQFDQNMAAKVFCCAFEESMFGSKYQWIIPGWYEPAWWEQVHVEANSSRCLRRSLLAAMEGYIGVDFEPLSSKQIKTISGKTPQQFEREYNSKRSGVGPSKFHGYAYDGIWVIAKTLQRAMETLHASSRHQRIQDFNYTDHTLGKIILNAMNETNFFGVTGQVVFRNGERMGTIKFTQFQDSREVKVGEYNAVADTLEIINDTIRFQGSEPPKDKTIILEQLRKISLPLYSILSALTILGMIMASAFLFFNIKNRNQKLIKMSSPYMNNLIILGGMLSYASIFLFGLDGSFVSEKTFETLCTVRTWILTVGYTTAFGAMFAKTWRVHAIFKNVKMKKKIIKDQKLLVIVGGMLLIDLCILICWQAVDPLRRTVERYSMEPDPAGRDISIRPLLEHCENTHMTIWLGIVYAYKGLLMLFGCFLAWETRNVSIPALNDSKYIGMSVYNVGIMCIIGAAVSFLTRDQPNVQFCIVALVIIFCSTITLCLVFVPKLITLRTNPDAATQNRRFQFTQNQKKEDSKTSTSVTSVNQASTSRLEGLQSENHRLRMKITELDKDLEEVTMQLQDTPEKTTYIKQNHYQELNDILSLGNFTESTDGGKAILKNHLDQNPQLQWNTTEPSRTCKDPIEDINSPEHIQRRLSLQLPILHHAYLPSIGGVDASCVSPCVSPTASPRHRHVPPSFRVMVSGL

EC50	Compound
1500 nM	CC(=O)Nc1cccc(-c2nn(Cc3ccc(Cl)cc3)c(=O)c3c(C4CC4)noc23)c1 [Example 51, N-{3-[5-(4-chlorobenzyl)-3-cyclopropyl-4-oxo-4,5-dihydro[1,2]oxazolo[4,5-d]pyridazin-7-yl]phenyl}acetamide]
982 nM	Cc1noc2c(-c3cccs3)nn(Cc3ccc(Cl)cc3)c(=O)c12 [Example 56, 5-(4-chlorobenzyl)-3-methyl-7-(thiophen-2-yl)[1,2]oxazolo[4,5-d]pyridazin-4(5H)-one]
3330 nM	CC(=O)Nc1cccc(-c2nn(Cc3ccc(C(F)(F)F)cc3)c(=O)c3c(C)noc23)c1 [Example 57, N-(3-{3-methyl-4-oxo-5-[4-(trifluoromethyl)benzyl]-4,5-dihydro[1,2]oxazolo[4,5-d]pyridazin-7-yl}phenyl)acetamide]
644 nM	COc1ccc(NC(C)=O)cc1-c1nn(Cc2ccc(C(F)(F)F)cc2)c(=O)c2c(C)noc12 [Example 64, N-(4-methoxy-3-{3-methyl-4-oxo-5-[4-(trifluoromethyl)benzyl]-4,5-dihydro[1,2]oxazolo[4,5-d]pyridazin-7-yl}phenyl)acetamide]
2130 nM	COc1ccccc1-c1nn(Cc2ccc(Cl)cc2)c(=O)c2c(C)noc12 [Example 67, 5-(4-chlorobenzyl)-7-(2-methoxyphenyl)-3-methyl[1,2]oxazolo[4,5-d]pyridazin-4(5H)-one]
935 nM	CC(=O)Nc1cccc(-c2nn(Cc3ccc(Cl)cc3)c(=O)c3c(C)noc23)c1 [Example 70, N-{3-[5-(4-chlorobenzyl)-3-methyl-4-oxo-4,5-dihydro[1,2]oxazolo[4,5-d]pyridazin-7-yl]phenyl}acetamide]
7700 nM	CC(=O)Nc1cccc(-c2nn([C@@H](C)c3ccc(Cl)cc3)c(=O)c3c(C)noc23)c1 [Example 72, N-(3-{5-[(1S)-1-(4-chlorophenyl)ethyl]-3-methyl-4-oxo-4,5-dihydro[1,2]oxazolo[4,5-d]pyridazin-7-yl}phenyl)acetamide]
1930 nM	Cc1ccccc1-c1nn(Cc2ccc(Cl)cc2)c(=O)c2c(C)noc12 [Example 76, 5-(4-chlorobenzyl)-3-methyl-7-(2-methylphenyl)[1,2]oxazolo[4,5-d]pyridazin-4(5H)-one]

Further lines, the molecule ahead of its results:

Compound	EC50
COc1ccccc1-c1nn(Cc2cc(C(F)(F)F)ccc2F)c(=O)c2c(C)noc12 [Example 46, 5-[2-fluoro-5-(trifluoromethyl)benzyl]-7-(2-methoxyphenyl)-3-methyl[1,2]oxazolo[4,5-d]pyridazin-4(5H)-one]	2290 nM
COc1ccc(OC)c(-c2nn(Cc3ccc(Cl)cc3)c(=O)c3c(C4CC4)noc23)c1 [Example 47, 5-(4-chlorobenzyl)-3-cyclopropyl-7-(2,5-dimethoxyphenyl)[1,2]oxazolo[4,5-d]pyridazin-4(5H)-one]	578 nM
COc1ccc(-c2nn(Cc3cc(C(F)(F)F)ccc3F)c(=O)c3c(C)noc23)c(OC)c1 [Example 48, 7-(2,4-dimethoxyphenyl)-5-[2-fluoro-5-(trifluoromethyl)benzyl]-3-methyl[1,2]oxazolo[4,5-d]pyridazin-4(5H)-one]	1550 nM
CC(=O)Nc1ccc(OC(F)(F)F)c(-c2nn(C(C)c3ccc(Cl)cc3)c(=O)c3c(C)noc23)c1 (centres unmarked) [Example 49, N-[3-{5-[1-(4-chlorophenyl)ethyl]-3-methyl-4-oxo-4,5-dihydro[1,2]oxazolo[4,5-d]pyridazin-7-yl}-4-(trifluoromethoxy)phenyl]acetamide]	283 nM
CCCc1noc2c(-c3cc(OC)ccc3OC)nn(Cc3ccc(Cl)cc3)c(=O)c12 [Example 52, 5-(4-chlorobenzyl)-7-(2,5-dimethoxyphenyl)-3-propyl[1,2]oxazolo[4,5-d]pyridazin-4(5H)-one]	> 10000 nM
Cc1noc2c(-c3cccc(S(N)(=O)=O)c3)nn(C(C)c3ccc(Cl)cc3)c(=O)c12 (centres unmarked) [Example 53, 3-{5-[1-(4-chlorophenyl)ethyl]-3-methyl-4-oxo-4,5-dihydro[1,2]oxazolo[4,5-d]pyridazin-7-yl}benzenesulfonamide]	620 nM
COc1ccccc1-c1nn(Cc2ccc(F)c(C(F)(F)F)c2)c(=O)c2c(C)noc12 [Example 54, 5-[4-fluoro-3-(trifluoromethyl)benzyl]-7-(2-methoxyphenyl)-3-methyl[1,2]oxazolo[4,5-d]pyridazin-4(5H)-one]	1200 nM
COc1ccc(NS(C)(=O)=O)cc1-c1nn(C(C)c2ccc(Cl)cc2)c(=O)c2c(C)noc12 (centres unmarked) [Example 55, N-(3-{5-[1-(4-chlorophenyl)ethyl]-3-methyl-4-oxo-4,5-dihydro[1,2]oxazolo[4,5-d]pyridazin-7-yl}-4-methoxyphenyl)methanesulfonamide]	80 nM
COc1ccc(C(N)=O)cc1-c1nn(C(C)c2ccc(Cl)cc2)c(=O)c2c(C)noc12 (centres unmarked) [Example 59]	17 nM
Cc1nn(CCc2ccc(Cl)cc2)c(=O)c2c(C)noc12 [Example 60, 5-[2-(4-chlorophenyl)ethyl]-3,7-dimethyl[1,2]oxazolo[4,5-d]pyridazin-4(5H)-one]	> 10000 nM
CC(=O)Nc1cc(-c2nn(Cc3ccc(F)c(C(F)(F)F)c3)c(=O)c3c(C)noc23)ccc1F [Example 61, N-(2-fluoro-5-{5-[4-fluoro-3-(trifluoromethyl)benzyl]-3-methyl-4-oxo-4,5-dihydro[1,2]oxazolo[4,5-d]pyridazin-7-yl}phenyl)acetamide]	> 10000 nM
COc1ccc(F)cc1-c1nn(C(C)c2ccc(Cl)cc2)c(=O)c2c(C)noc12 (centres unmarked) [Example 63, 5-[1-(4-chlorophenyl)ethyl]-7-(5-fluoro-2-methoxyphenyl)-3-methyl[1,2]oxazolo[4,5-d]pyridazin-4(5H)-one]	491 nM
Cc1noc2c(-c3cccc(N)c3C(N)=O)nn(C(C)c3ccc(Cl)cc3)c(=O)c12 (centres unmarked) [Example 65, 2-amino-6-{5-[1-(4-chlorophenyl)ethyl]-3-methyl-4-oxo-4,5-dihydro[1,2]oxazxazolo[4,5-d]pyridazin-7-yl}benzamide]	1850 nM
COc1ccc(Cn2nc(-c3ccc(F)cc3)c3onc(C)c3c2=O)cc1C(F)(F)F [Example 66, 7-(4-fluorophenyl)-5-[4-methoxy-3-(trifluoromethyl)benzyl]-3-methyl[1,2]oxazolo[4,5-d]pyridazin-4(5H)-one]	2790 nM
COc1ccc(OC)c(-c2nn([C@@H](C)c3ccc(Cl)cc3)c(=O)c3c(C4CC4)noc23)c1 [Example 68, 5-[(1S)-1-(4-chlorophenyl)ethyl]-3-cyclopropyl-7-(2,5-dimethoxyphenyl)[1,2]oxazolo[4,5-d]pyridazin-4(5H)-one]	48 nM
COCc1noc2c(-c3cc(OC)ccc3OC)nn(Cc3ccc(Cl)cc3)c(=O)c12 [Example 71, 5-(4-chlorobenzyl)-7-(2,5-dimethoxyphenyl)-3-(methoxymethyl)[1,2]oxazolo[4,5-d]pyridazin-4(5H)-one]	2210 nM
COc1ccc(C(=O)O)cc1-c1nn(C(C)c2ccc(Cl)cc2)c(=O)c2c(C)noc12 (centres unmarked) [Example 73]	39 nM
Cc1noc2c(-c3cc(F)cc(F)c3N)nn(C(C)c3ccc(Cl)cc3)c(=O)c12 (centres unmarked) [Example 77, 7-(2-amino-3,5-difluorophenyl)-5-[1-(4-chlorophenyl)ethyl]-3-methyl[1,2]oxazolo[4,5-d]pyridazin-4(5H)-one]	2480 nM
